The source of these data is ChEMBL document CHEMBL4043148, “Nitro-substituted tetrahydroindolizines and homologs: Design, kinetics, and mechanism of α-glucosidase inhibition” (Bioorg Med Chem Lett, 2017).

The inhibition is the change of the read-out against control, counted positive when it falls. The IC50 is the concentration needed to halve the response being measured. One may read the Vmax as the top rate of the reaction or transport when substrate is in excess. One may read the Km as the substrate concentration at which the rate is half of its maximum. One may read the Ki as the equilibrium dissociation constant of an inhibitor or competing ligand from its target.

For assay [1], the system named is Saccharomyces cerevisiae. Kind of assay: Inhibition of Saccharomyces cerevisiae alpha-glucosidase using 4-nitrophenyl alpha-D-glucopyranoside as substrate at 300 uM preincubated for 5 mins followed by substrate addition measured after 10 mins.
A short description of assay [2]: Inhibition of Saccharomyces cerevisiae alpha-glucosidase using 4-nitrophenyl alpha-D-glucopyranoside as substrate preincubated for 5 mins followed by substrate addition measured after 10 mins.
Assay [3] concerns Saccharomyces cerevisiae. Kind of assay: Inhibition of Saccharomyces cerevisiae alpha-glucosidase using 4-nitrophenyl alpha-D-glucopyranoside as substrate at 150 uM preincubated for 5 mins followed by substrate addition measured after 10 mins.
Assay [4] relates to Saccharomyces cerevisiae. Kind of assay: Mixed inhibition of Saccharomyces cerevisiae alpha-glucosidase assessed as Vmax for substrate up to 10 uM in presence of varying concentrations of 4-nitrophenyl alpha-D-glucopyranoside after 2 mins by Lineweaver-Burk plot analysis (reference value: 23.8 nmol/min/ml).
The subject of assay [5] is Saccharomyces cerevisiae. The assay can be described thus: Mixed inhibition of Saccharomyces cerevisiae alpha-glucosidase assessed as free-enzyme inhibition constant up to 12.5 uM using 4-nitrophenyl alpha-D-glucopyranoside as substrate after 2 mins by Lineweaver-Burk plot analysis.
Assay [6] concerns Saccharomyces cerevisiae. Kind of assay: Mixed inhibition of Saccharomyces cerevisiae alpha-glucosidase assessed as Km for substrate up to 10 uM in presence of varying concentrations of 4-nitrophenyl alpha-D-glucopyranoside after 2 mins by Lineweaver-Burk plot analysis (reference value: 0.092 mM).
Assay [7] deals with Saccharomyces cerevisiae. Kind of assay: Reversible inhibition of Saccharomyces cerevisiae alpha-glucosidase up to 15 uM using 4-nitrophenyl alpha-D-glucopyranoside as substrate after 2 mins by Lineweaver-Burk plot analysis.
The subject of assay [8] is Saccharomyces cerevisiae. Kind of assay: Potency index, ratio of 1-deoxynojirimycin IC50 to compound IC50 for Saccharomyces cerevisiae alpha-glucosidase.
The nature of assay [9]: Mixed inhibition of Saccharomyces cerevisiae alpha-glucosidase assessed as enzyme inhibitor substrate constant up to 12.5 uM using 4-nitrophenyl alpha-D-glucopyranoside as substrate after 2 mins by Lineweaver-Burk plot analysis.

The source made the active and inactive calls. The rule behind the calls is not given here. Some results are limits rather than exact numbers.

Turning to `CS(=O)(=O)Cc1c([N+](=O)[O-])cn2c1CCCCC2`, the inhibition entry in assay [1] is “inactive”. Also, in [2], the IC50 is greater than 300 µM.

As for `OC[C@H]1NC[C@H](O)[C@@H](O)[C@@H]1O` [DUVOGLUSTAT], 203 µM corresponded to half-maximal inhibition in assay [2] (IC50).

For the molecule `COC(=O)C(c1c([N+](=O)[O-])cn2c1CCC2)S(C)(=O)=O` (stereo not drawn), in [2], the IC50 is 48 µM.

As to `CS(=O)(=O)Cc1c([N+](=O)[O-])cn2c1CCC2`, in assay [3], the inhibition was 46%. Also, in [2], the concentration for half-maximal inhibition (IC50) is greater than 150 µM.

Molecule `COC(=O)C(c1c([N+](=O)[O-])cn2c1CCCC2)S(=O)(=O)Cc1ccc(C)cc1` (stereo not drawn) gave an IC50 in assay [2] of 65 µM.

For the molecule `CS(=O)(=O)Cc1c([N+](=O)[O-])cn2c1CCCC2`, the 50% inhibitory concentration (IC50) in [2] turned out to be 72 µM.

Take `COC(=O)C(c1c([N+](=O)[O-])cn2c1CCCC2)S(C)(=O)=O` (stereo not drawn): the Vmax in assay [4] worked out at 10.7 nmol/min/mL. Moreover, the fKi in assay [5] is 3.6 µM. In addition, the Michaelis-Menten constant (Km) in [6] came out at 140 µM. Besides, the 50% inhibitory concentration (IC50) in [2] is 8 µM. Moreover, the inhibition entry in assay [7] was “Active”. Besides, the Ratio IC50 in assay [8] turned out to be 25. In assay [9], the Ki came out at 7.6 µM.

In assay [2], `COC(=O)C(c1c([N+](=O)[O-])cn2c1CCCCC2)S(C)(=O)=O` (stereo not drawn) registered a half-inhibitory concentration (IC50) of 124 µM.

Take `O=[N+]([O-])c1cn2c(c1CS(=O)(=O)Cc1ccccc1)CCCC2`: in assay [2], the midpoint of inhibition, the IC50, lay at 29 µM.

In assay [2], `COC(=O)C(c1c([N+](=O)[O-])cn2c1CCCC2)S(=O)(=O)Cc1ccccc1` (stereo not drawn) returned an IC50 of 19.8 µM.
